Measurements: PubChem BioAssay (NCI)
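In this assay, cells in 96-well plates receive the compound at five concentrations for 48 hours. Endpoints are linearly interpolated between the surrounding concentrations. GI50 marks 50% less growth. TGI denotes the concentration required for complete inhibition of growth.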

Legend:
Test in all cases: DTP human tumour cell line panel, 48 h
786-0 renal = test system: 786-0 renal
A498 renal = test system: A498 renal
A549 NSCLC = test system: A549 NSCLC
ACHN renal = test system: ACHN renal
BT-549 breast = test system: BT-549 breast
CAKI-1 renal = test system: CAKI-1 renal
CCRF-CEM leukemia = test system: CCRF-CEM leukemia
EKVX NSCLC = test system: EKVX NSCLC
HCC-2998 colon = test system: HCC-2998 colon
HCT-15 colon = test system: HCT-15 colon
HL-60(TB) leukemia = test system: HL-60(TB) leukemia
HOP-92 NSCLC = test system: HOP-92 NSCLC
HS 578T breast = test system: HS 578T breast
HT29 colon = test system: HT29 colon
IGROV1 ovarian = test system: IGROV1 ovarian
K-562 leukemia = test system: K-562 leukemia
KM12 colon = test system: KM12 colon
LOX IMVI melanoma = test system: LOX IMVI melanoma
M14 melanoma = test system: M14 melanoma
MCF7 breast = test system: MCF7 breast
MOLT-4 leukemia = test system: MOLT-4 leukemia
NCI-H226 lung = test system: NCI-H226 lung
NCI-H23 lung = test system: NCI-H23 lung
NCI-H460 lung = test system: NCI-H460 lung
NCI/ADR-RES ovarian = test system: NCI/ADR-RES ovarian
OVCAR-3 ovarian = test system: OVCAR-3 ovarian
OVCAR-4 ovarian = test system: OVCAR-4 ovarian
OVCAR-5 ovarian = test system: OVCAR-5 ovarian
OVCAR-8 ovarian = test system: OVCAR-8 ovarian
PC-3 prostate = test system: PC-3 prostate
RPMI-8226 leukemia = test system: RPMI-8226 leukemia
RXF 393 renal = test system: RXF 393 renal
SF-268 CNS = test system: SF-268 CNS
SF-539 CNS = test system: SF-539 CNS
SK-MEL-28 melanoma = test system: SK-MEL-28 melanoma
SK-MEL-5 melanoma = test system: SK-MEL-5 melanoma
SK-OV-3 ovarian = test system: SK-OV-3 ovarian
SN12C renal = test system: SN12C renal
SNB-19 CNS = test system: SNB-19 CNS
SNB-75 CNS = test system: SNB-75 CNS
SR leukemia = test system: SR leukemia
SW-620 colon = test system: SW-620 colon
TK-10 renal = test system: TK-10 renal
U251 CNS = test system: U251 CNS
UACC-62 melanoma = test system: UACC-62 melanoma
UO-31 renal = test system: UO-31 renal
COLO 205 colon = test system: COLO 205 colon
HOP-62 NSCLC = test system: HOP-62 NSCLC
MALME-3M melanoma = test system: MALME-3M melanoma
MDA-MB-231 breast = test system: MDA-MB-231 breast
NCI-H522 lung = test system: NCI-H522 lung
SF-295 CNS = test system: SF-295 CNS
SK-MEL-2 melanoma = test system: SK-MEL-2 melanoma
T-47D breast = test system: T-47D breast
UACC-257 melanoma = test system: UACC-257 melanoma
DU-145 prostate = test system: DU-145 prostate
HCT-116 colon = test system: HCT-116 colon
MDA-MB-435 = test system: MDA-MB-435

## CC1C2=C(CCCC2=O)N(c2ccc(Cl)cc2)C2=C1C(=O)CCC2
786-0 renal
  TGI: > 100 µM
A498 renal
  TGI: > 100 µM
A549 NSCLC
  TGI: > 100 µM
ACHN renal
  TGI: > 100 µM
BT-549 breast
  TGI: > 100 µM
CAKI-1 renal
  TGI: > 100 µM
CCRF-CEM leukemia
  TGI: > 100 µM
EKVX NSCLC
  TGI: > 100 µM
HCC-2998 colon
  TGI: > 100 µM
HCT-15 colon
  TGI: > 100 µM
HL-60(TB) leukemia
  TGI: > 100 µM
HOP-92 NSCLC
  TGI: > 100 µM
HS 578T breast
  TGI: > 100 µM
HT29 colon
  TGI: > 100 µM
IGROV1 ovarian
  TGI: > 100 µM
K-562 leukemia
  TGI: > 100 µM
KM12 colon
  TGI: > 100 µM
LOX IMVI melanoma
  TGI: > 100 µM
M14 melanoma
  TGI: > 100 µM
MCF7 breast
  TGI: > 100 µM
MOLT-4 leukemia
  TGI: > 100 µM
NCI-H226 lung
  TGI: > 100 µM
NCI-H23 lung
  TGI: > 100 µM
NCI-H460 lung
  TGI: > 100 µM
NCI/ADR-RES ovarian
  TGI: > 100 µM
OVCAR-3 ovarian
  TGI: > 100 µM
OVCAR-4 ovarian
  TGI: > 100 µM
OVCAR-5 ovarian
  TGI: > 100 µM
OVCAR-8 ovarian
  TGI: > 100 µM
PC-3 prostate
  TGI: > 100 µM
RPMI-8226 leukemia
  TGI: > 100 µM
RXF 393 renal
  TGI: 78.4 µM
SF-268 CNS
  TGI: > 100 µM
SF-539 CNS
  TGI: > 100 µM
SK-MEL-28 melanoma
  TGI: > 100 µM
SK-MEL-5 melanoma
  TGI: > 100 µM
SK-OV-3 ovarian
  TGI: > 100 µM
SN12C renal
  TGI: > 100 µM
SNB-19 CNS
  TGI: > 100 µM
SNB-75 CNS
  TGI: > 100 µM
SR leukemia
  TGI: > 100 µM
SW-620 colon
  TGI: > 100 µM
TK-10 renal
  TGI: > 100 µM
U251 CNS
  TGI: > 100 µM
UACC-62 melanoma
  TGI: > 100 µM
UO-31 renal
  TGI: > 100 µM

## O=S(=O)(O)Oc1cc2c(c(OS(=O)(=O)O)c1)C[C@H](OS(=O)(=O)O)[C@@H](c1ccc(OS(=O)(=O)O)c(OS(=O)(=O)O)c1)O2
A549 NSCLC
  TGI: > 100 µM
ACHN renal
  TGI: > 100 µM
BT-549 breast
  TGI: > 100 µM
COLO 205 colon
  TGI: > 100 µM
EKVX NSCLC
  TGI: > 100 µM
HCT-15 colon
  TGI: > 100 µM
HOP-62 NSCLC
  TGI: > 100 µM
HOP-92 NSCLC
  TGI: > 100 µM
HS 578T breast
  TGI: > 100 µM
HT29 colon
  TGI: > 100 µM
IGROV1 ovarian
  TGI: > 100 µM
LOX IMVI melanoma
  TGI: > 100 µM
M14 melanoma
  TGI: > 100 µM
MALME-3M melanoma
  TGI: > 100 µM
MCF7 breast
  TGI: > 100 µM
MDA-MB-231 breast
  TGI: > 100 µM
MOLT-4 leukemia
  TGI: > 100 µM
NCI-H226 lung
  TGI: > 100 µM
NCI-H460 lung
  TGI: > 100 µM
NCI-H522 lung
  TGI: > 100 µM
NCI/ADR-RES ovarian
  TGI: > 100 µM
OVCAR-3 ovarian
  TGI: > 100 µM
OVCAR-4 ovarian
  TGI: > 100 µM
OVCAR-5 ovarian
  TGI: > 100 µM
OVCAR-8 ovarian
  TGI: > 100 µM
PC-3 prostate
  TGI: > 100 µM
SF-268 CNS
  TGI: > 100 µM
SF-295 CNS
  TGI: > 100 µM
SK-MEL-2 melanoma
  TGI: > 100 µM
SK-MEL-5 melanoma
  TGI: > 100 µM
SK-OV-3 ovarian
  TGI: > 100 µM
SN12C renal
  TGI: > 100 µM
SNB-19 CNS
  TGI: > 100 µM
SNB-75 CNS
  TGI: > 100 µM
SR leukemia
  TGI: > 100 µM
SW-620 colon
  TGI: > 100 µM
T-47D breast
  TGI: > 100 µM
UACC-257 melanoma
  TGI: > 100 µM
UACC-62 melanoma
  TGI: > 100 µM
UO-31 renal
  TGI: > 100 µM

## COc1ccc(C(CC(=O)c2ccccc2)C(C(=O)c2ccccc2)C(c2ccc(OC)cc2)C2C(=O)NC(=S)NC2=O)cc1 (stereo not given)
786-0 renal
  GI50: 21.7 µM
  TGI: > 100 µM
A498 renal
  GI50: 3.19 µM
  TGI: 23.2 µM
A549 NSCLC
  GI50: 8.96 µM
  TGI: 75.7 µM
ACHN renal
  GI50: 12.3 µM
  TGI: 50.9 µM
BT-549 breast
  GI50: 12.8 µM
  TGI: 49.8 µM
CAKI-1 renal
  GI50: 2.53 µM
  TGI: 11.8 µM
CCRF-CEM leukemia
  GI50: 11.8 µM
  TGI: > 100 µM
COLO 205 colon
  GI50: 8.86 µM
  TGI: > 100 µM
DU-145 prostate
  GI50: 10.5 µM
  TGI: 32 µM
EKVX NSCLC
  GI50: 2.44 µM
  TGI: 57.2 µM
HCC-2998 colon
  GI50: 2.46 µM
  TGI: 16.6 µM
HCT-116 colon
  GI50: 15.4 µM
  TGI: 37.4 µM
HCT-15 colon
  GI50: 12.9 µM
  TGI: 37.2 µM
HL-60(TB) leukemia
  GI50: 20.1 µM
  TGI: > 100 µM
HOP-62 NSCLC
  GI50: 21.1 µM
  TGI: > 100 µM
HOP-92 NSCLC
  GI50: 3.1 µM
  TGI: 43.1 µM
HS 578T breast
  GI50: 10.5 µM
  TGI: 47.9 µM
HT29 colon
  GI50: 21.3 µM
  TGI: > 100 µM
IGROV1 ovarian
  GI50: 8.67 µM
  TGI: 48.5 µM
K-562 leukemia
  GI50: 24.8 µM
  TGI: > 100 µM
KM12 colon
  GI50: 8.12 µM
  TGI: 39.8 µM
LOX IMVI melanoma
  GI50: 8.18 µM
  TGI: 20.6 µM
M14 melanoma
  GI50: 36.9 µM
  TGI: > 100 µM
MALME-3M melanoma
  GI50: 19.8 µM
  TGI: 58.4 µM
MCF7 breast
  GI50: 16.1 µM
  TGI: > 100 µM
MDA-MB-231 breast
  GI50: 2.16 µM
  TGI: 10.6 µM
MDA-MB-435
  GI50: 10.6 µM
  TGI: 35.3 µM
MOLT-4 leukemia
  GI50: 11.4 µM
  TGI: > 100 µM
NCI-H226 lung
  GI50: 38.4 µM
  TGI: > 100 µM
NCI-H23 lung
  GI50: 14.3 µM
  TGI: 46.6 µM
NCI-H460 lung
  GI50: 5.88 µM
  TGI: 50.7 µM
NCI-H522 lung
  GI50: 11.9 µM
  TGI: 35.1 µM
NCI/ADR-RES ovarian
  GI50: 10.7 µM
  TGI: 34.1 µM
OVCAR-3 ovarian
  GI50: 4.96 µM
  TGI: 24.8 µM
OVCAR-4 ovarian
  GI50: 30.3 µM
  TGI: > 100 µM
OVCAR-5 ovarian
  GI50: 13.9 µM
  TGI: 37.7 µM
OVCAR-8 ovarian
  GI50: 13.5 µM
  TGI: 45.6 µM
PC-3 prostate
  GI50: 5.61 µM
  TGI: > 100 µM
RPMI-8226 leukemia
  GI50: 25.6 µM
  TGI: > 100 µM
RXF 393 renal
  GI50: 18.2 µM
  TGI: > 100 µM
SF-268 CNS
  GI50: 9.99 µM
  TGI: 55.5 µM
SF-295 CNS
  GI50: 11.4 µM
  TGI: 42.7 µM
SF-539 CNS
  GI50: 10.1 µM
  TGI: 36.1 µM
SK-MEL-2 melanoma
  GI50: 13.8 µM
  TGI: 49 µM
SK-MEL-28 melanoma
  GI50: 16 µM
  TGI: > 100 µM
SK-MEL-5 melanoma
  GI50: 10.5 µM
  TGI: 22.7 µM
SK-OV-3 ovarian
  GI50: > 100 µM
  TGI: > 100 µM
SN12C renal
  GI50: 12.8 µM
  TGI: 45.2 µM
SNB-19 CNS
  GI50: 24.9 µM
  TGI: > 100 µM
SNB-75 CNS
  GI50: 31.2 µM
  TGI: > 100 µM
SW-620 colon
  GI50: 14.3 µM
  TGI: 39.9 µM
T-47D breast
  GI50: 13.2 µM
  TGI: > 100 µM
TK-10 renal
  GI50: 18.7 µM
  TGI: > 100 µM
U251 CNS
  GI50: 7.42 µM
  TGI: 23.6 µM
UACC-257 melanoma
  GI50: 13.8 µM
  TGI: 52.7 µM
UACC-62 melanoma
  GI50: 13.3 µM
  TGI: 34 µM
UO-31 renal
  GI50: 7.32 µM
  TGI: 26.1 µM
